Test results reported in patent publication US11866416B2, “Streptococcus mutans glucosyl transferase inhibitors for dental caries therapy” (UAB Research Foundation, priority 2018, dated 2024).
Converted amounts (≈) assume the structure as drawn. Like-named read-outs stand apart in the source and are kept apart here.

Legend:
S. mutans = test: microbe, parasite or virus in culture; format: cell-based, Streptococcus mutans; details: for MIC50: Streptococcus mutans; for Selectivity: growth versus biofilm
Description: Cell viability of S. mutans, S. gordonii, S. sanguinis, Aggregatibacter actinomycetemcomitans and Actinomyces. […] The number of colony-forming units (CFU) per milliliter of each sample treated with selected compounds at different concentrations was enumerated after incubation for 24 h at 37° C. and compared to the values obtained from the DMSO control group. Overnight broth cultures were transferred by 1:50 dilutions into fresh THB medium and were allowed to grow until mid-exponential phase (OD470 nm 0.6) before transfer to 96-well plates containing desired concentration of the compound. After 16 h incubation, bacterial growth was measured at OD470, and normalized to the DMSO control (100%).
Cell viability of S. mutans and commensal S. gordonii and S. sanguinis. Effects of lead small molecules on cell viability were examined. The number of colony-forming units (CFU) per milliliter for each compound at different concentrations was determined after incubation for 24 h at 37° C. and compared to the values obtained from the DMSO control group.
Cell viability of S. mutans and commensal S. gordonii and S. sanguinis. […] DMSO served as a control group and provided a relative comparison for the number of colony-forming units (CFU) per milliliter for each compound at different concentrations was determined after incubation for 24 h at 37° C. The final concentration of DMSO used in the assays was 1%.

S. mutans biofilm = S. mutans biofilm formation and inhibition assay (96-well plates, crystal violet); format: cell-based, Streptococcus mutans
Description: Biofilm assays using 96-well flat-bottom polystyrene microtiter plates were performed to evaluate S. mutans biofilm formation at various conditions as described (Liu et al. (2011) Antimicrobial Agents and Chemotherapy 55, 2679; Zhang et al. (2015) International Journal of Antimicrobial Agents 46, 174), the disclosures of which are incorporated herein by reference in their entirety). Each assay was replicated three times. Compounds that inhibited biofilm formation at minimum concentration (MBIC) were determined by serial dilutions.
S. mutans biofilm formation and inhibition assays. […] Each assay was replicated three times. Minimum biofilm inhibitory concentration (MBIC) of compounds was determined by serial dilutions.
S. mutans biofilm formation and inhibition assays. Biofilm assays using 96-well flat-bottom polystyrene microtiter plates were performed to evaluate S. mutans biofilm formation at various conditions as described. Each assay was replicated […]. Compounds that inhibited 50% biofilm formation were determined by serial dilutions.
S. mutans biofilm formation and inhibition assays. A well-established protocol to study S. mutans biofilm formation in 96-well flat-bottom polystyrene microtiter plates was used, in triplicate (Mattos-Graner, R. O.; Napimoga, M. H.; Fukushima, K.; Duncan, M. J.; Smith, D. J., Comparative analysis of Gtf isozyme production and diversity in isolates of Streptococcus mutans with different biofilm growth phenotypes. Journal of clinical microbiology 2004, 42 (10), 4586-4592). The stock solutions were made up in 100% DMSO, and final concentration of DMSO used in the assays was 1%. Minimum biofilm inhibitory concentration (MBIC) of compounds was determined by serial dilutions.

[1] = Table 2, >300 = no inhibition up to 300 μM, read-out: Growth Inhibition MIC50
[2] = Streptococcus mutans, Table 1, >500 = no inhibition up to 500 μM, read-out: Biofilm Inhibition IC50
[3] = Streptococcus mutans, Table 2, read-out: Biofilm Inhibition IC50
[4] = Table 6, chalcones, 200 μM, NI = no inhibition
[5] = read-out: S. mutans biofilm IC50
[6] = Table 4, stilbenes, average of at least 5 measurements, NI = no inhibition, read-out: Growth MIC50
[7] = Table 8, stilbenes, average of at least 5 measurements, NI = no inhibition
[8] = Streptococcus mutans, Table 4, stilbenes, NI = no inhibition, read-out: Biofilm IC50
[9] = Streptococcus mutans, Table 8, stilbenes, NI = no inhibition, read-out: Biofilm IC50

Compound | MIC50 (S. mutans; [1]) | IC50 (S. mutans biofilm; [2]) | IC50 (S. mutans biofilm; [3]) | further results
O=C(Nc1ccccc1F)c1cc2cc([N+](=O)[O-])ccc2s1 [BM] | > 300 µM | 162 µM | 162 µM | –
NC(=O)c1ccc(NC(=O)c2ccc3ccccc3c2O)cc1 [BN] | > 300 µM | 56.9 µM | 56.9 µM | –
NC(=O)c1cccc(NC(=O)c2ccccc2-c2ccccc2)c1 [BO] | > 300 µM | 49.4 µM | 49.4 µM | –
NC(=O)c1ccc(NC(=O)c2cccc3ccccc23)cc1 [BR] | > 300 µM | 167 µM | 167 µM | –
NC(=O)c1cccc(NC(=O)c2cccc3ccccc23)c1 [BS] | > 300 µM | 195 µM | 195 µM | –
NCc1cccc(NC(=O)c2cc3ccccc3s2)c1 [BX] | > 300 µM | 209 µM | 209 µM | –
COC(=O)c1ccc(NC(=O)c2cc3cc([N+](=O)[O-])ccc3[nH]2)cc1 [BZ] | > 300 µM | 196 µM | – | –
O=C(/C=C/c1cccc(O)c1)c1ccccc1O [Compound 2] | – | – | – | Growth inhibition 200 μM (%) (S. mutans; [4]): 86 ± 0.5%; IC50 (S. mutans; Table 6, chalcones, NI = no inhibition, read-out: S. mutans Growth IC50): 32 ± 0.3 µM; Biofilm inhibition 200 μM (%) (S. mutans biofilm; [4]): 84 ± 3%; IC50 (S. mutans biofilm; Table 6, chalcones, read-out: S. mutans Biofilm IC50): 64 ± 4 µM
NC(=O)c1ccccc1NC(=O)c1cc2ccccc2s1 [Compound 3B] | > 300 µM | 45.6 µM | 45.6 µM | –
NC(=O)c1ccccc1NC(=O)c1c[nH]c2ccccc12 [Compound 3F] | > 300 µM | 146 µM | 146 µM | –
COc1ccc2[nH]c(C(=O)Nc3ccccc3C(N)=O)cc2c1 [Compound 3G] | > 300 µM | 68.8 µM | 68.8 µM | –
NC(=O)c1ccccc1NC(=O)c1cnc2ccc(Br)cc2c1 [Compound 3J] | > 300 µM | 106 µM | 106 µM | –
NC(=O)c1ccccc1NC(=O)c1cc2cc([N+](=O)[O-])ccc2o1 [Compound 3K] | > 300 µM | 103 µM | 103 µM | –
NC(=O)c1cccc(NC(=O)c2cc3cc([N+](=O)[O-])ccc3s2)c1 [Compound 3P] | > 300 µM | 42.3 µM | 42.3 µM | –
NC(=O)c1ccccc1OC(=O)c1cc2cc([N+](=O)[O-])ccc2s1 [Compound 3Q] | > 300 µM | 50.4 µM | 50.4 µM | –
NC(=O)c1cccc(NC(=O)c2cnc3ccccc3c2)c1 [Compound 3R] | > 300 µM | 8.6 µM | 8.6 µM | –
COC(=O)c1ccc(NC(=O)c2cnc3ccccc3c2)cc1 [Compound 3S] | > 300 µM | 92.3 µM | 92.3 µM | –
COC(=O)c1cccc(NC(=O)c2cc3cc([N+](=O)[O-])ccc3s2)c1 [Compound 3U] | > 300 µM | 54.4 µM | 54.4 µM | –
COC(=O)c1ccc(NC(=O)c2cc3ccccc3s2)cc1 [Compound 3V] | > 300 µM | 41.2 µM | 41.2 µM | –

Compound | MIC50 (S. mutans; [1]) | IC50 (S. mutans biofilm; [2]) | IC50 (S. mutans biofilm; [3]) | further results
COc1ccc2[nH]c(C(=O)Nc3cccc(C(N)=O)c3)cc2c1 [Compound 3W] | > 300 µM | 56.6 µM | 56.6 µM | –
NC(=O)c1cccc(NC(=O)c2cc3ccccc3s2)c1 [Compound 3X] | > 300 µM | 116 µM | 116 µM | –
NC(=O)c1ccc(NC(=O)c2cc3ccccc3s2)cc1 [Compound 3Y] | > 300 µM | 45.6 µM | 45.6 µM | –
NC(=O)c1cccc(NC(=O)c2cc3cc([N+](=O)[O-])ccc3o2)c1 [Compound 3Z] | > 300 µM | 38.8 µM | 38.8 µM | –
N=C(N)c1ccc(/C=C/c2ccc(C(=N)N)cc2O)cc1 [Compound 5] | – | – | – | S. mutans growth IC50 / MIC50 (S. mutans): 179 µM; effect on S. mutans growth (S. mutans; chalcones, up to 200 μM): did not possess any bactericidal or anti-biofilm properties; effect on S. mutans biofilm in the preliminary screen (S. mutans biofilm; chalcones, 200 μM): did not possess any bactericidal or anti-biofilm properties; IC50 (S. mutans biofilm; [5]): 104 µM
Oc1cc(O)cc(/C=C/c2ccc(O)c(O)c2)c1 [Compound 8] | – | – | – | Growth inhibition 200 μM (%) (S. mutans; [4]): 82 ± 2%; Biofilm inhibition 200 μM (%) (S. mutans biofilm; [4]): 81 ± 2%; IC50 (S. mutans biofilm; [5]): 52 µM
COc1ccc(/C=C/C(=O)c2ccc(OC)c(OC)c2)cc1O [Compound 13] | – | – | – | Growth inhibition 200 μM (%) (S. mutans; [4]): 30 ± 0.7%; growth inhibition at 200 μM (S. mutans; chalcones, 200 μM): 30%; activity of stilbenes against S. mutans growth (S. mutans; stilbenes): not active against biofilm and growth; Biofilm inhibition 200 μM (%) (S. mutans biofilm; [4]): 27 ± 4%; biofilm inhibition at 200 μM (S. mutans biofilm; chalcones, 200 μM): 30%; activity of stilbenes against S. mutans biofilm (S. mutans biofilm; stilbenes): not active against biofilm and growth
CC(C)(C)OC(=O)NCc1ccccc1NC(=O)c1cc2cc([N+](=O)[O-])ccc2[nH]1 [Compound 298C9] | > 300 µM | – | 26.8 µM | –
NCc1ccccc1NC(=O)c1cc2cc([N+](=O)[O-])ccc2[nH]1 [Compound 298C10] | > 300 µM | – | 98.3 µM | –
COC(=O)c1cccc(NC(=O)c2cc3ccccc3s2)c1 [Compound 298D5] | > 300 µM | – | 121 µM | –
NC(=O)c1ccccc1OC(=O)c1cnc2ccccc2c1 [Compound 298F7] | > 300 µM | – | 30.4 µM | –
COC(=O)c1cccc(NC(=O)c2ccc3ccccc3n2)c1 [Compound 298G5] | > 300 µM | – | 92.3 µM | –
COC(=O)c1ccc(NC(=O)c2ccc3ccccc3n2)cc1 [Compound 298G6] | > 300 µM | – | 106 µM | –
NC(=O)c1ccccc1OC(=O)c1ccc2ccccc2n1 [Compound 298G7] | > 300 µM | – | 105 µM | –
NC(=O)c1cccc(NC(=O)c2cc3cc([N+](=O)[O-])ccc3[nH]2)c1 [Compound 298b2] | > 300 µM | – | 138 µM | –
Oc1ccc(/C=C/c2ccc(O)cc2)cc1 [Entry 4] | – | – | – | MIC50 (S. mutans; [6]): 854 ± 58 µM (≈ 181 µg/mL); Selectivity (S. mutans; Table 4, stilbenes): 2.4; Growth MIC50 (S. mutans; [7]): 854 ± 58 µM; Selectivity (S. mutans; Table 8, stilbenes): 2.4; IC50 (S. mutans biofilm; [8]): 344 ± 17 µM; IC50 (S. mutans biofilm; [9]): 344 ± 17 µM
N=C(N)c1ccc(/C=C/c2ccc(C(=N)N)cc2O)cc1 [Entry 5] | – | – | – | MIC50 (S. mutans; [6]): 179 ± 23 µM (≈ 50.2 µg/mL); Growth MIC50 (S. mutans; [7]): 179 ± 23 µM; IC50 (S. mutans biofilm; [8]): 104 ± 7 µM; IC50 (S. mutans biofilm; [9]): 104 ± 7 µM
COc1cc(O)cc(/C=C/c2ccccc2)c1 [Entry 6] | – | – | – | MIC50 (S. mutans; [6]): 546 ± 25 µM (≈ 124 µg/mL); Selectivity (S. mutans; Table 4, stilbenes): 1.1; Growth MIC50 (S. mutans; [7]): 546 ± 25 µM; Selectivity (S. mutans; Table 8, stilbenes): 1.1; IC50 (S. mutans biofilm; [8]): 477 ± 51 µM; IC50 (S. mutans biofilm; [9]): 477 ± 51 µM
